Source: patent US6639130B2, “Plant sterol reductases and uses thereof” (The General Hospital Corporation, priority 1996, dated 2003)
“Also recorded” adds a separate entry of the source.

Tests used:
ell seedlings = experiment: Exogenous feeding of brassinolide to ell seedlings germinated on agar plates; type: in vivo, Arabidopsis; conditions: 1 μM in growth medium (agar plates); dark or light
Experimental: FIGS. 13A-13B are photographs showing that the ell phenotype was not corrected by exogenous feeding of brassinolide (1 μM) in either dark (FIG. 13A) or light (FIG. 13B). From left to right in FIGS. 13A-13B: wild-type; ell; wild-type+brassinolide; and ell+brassinolide.
To determine whether the ell mutant phenotype is corrected by exogenous feeding of brassinolide, we germinated ell seedlings on agar plates containing 1 μM brassinolide or 1 μM 24-epibrassinolide (Li et al., Science 272: 398, 1996). […] Thus, it appears that steroid compounds other than BRs are needed to restore an ell mutant to a normal growth and development phenotype, as reflected by the pleiotropic phenotypes such as stunted roots (FIG. 2) and impaired embryogenesis (FIGS. 7A-7F).

wild-type seedlings = experiment: Treatment of wild-type seedlings with synthetic cytokinin (phenocopy of ell mutant morphology); type: in vivo, Arabidopsis; conditions: 30 μM; in the dark or light
Source text: From left to right in both FIGS. 1A-1B: wild-type plant; wild-type plant+2ip; ell; and ell+2ip.

SMILES | correction of the ell mutant phenotype by exogenous feeding (ell seedlings) | ell mutant seedling morphology phenocopied in wild-type seedlings (wild-type seedlings)
CC(C)[C@@H](C)[C@@H](O)[C@H](O)[C@@H](C)[C@H]1CC[C@H]2[C@@H]3COC(=O)[C@H]4C[C@H](O)[C@H](O)C[C@]4(C)[C@H]3CC[C@]12C [24-epibrassinolide] | did not alter the mutant phenotype | –
CC(C)=CCNc1ncnc2nc[nH]c12 [2ip, dimethylallylamino-purine] | – | phenocopied
CC(C)[C@H](C)[C@@H](O)[C@H](O)[C@@H](C)[C@H]1CC[C@H]2[C@@H]3COC(=O)[C@H]4C[C@H](O)[C@H](O)C[C@]4(C)[C@H]3CC[C@]12C [brassinolide] | not corrected; also recorded: did not alter the mutant phenotype | –
